Laboratory results as given in ChEMBL document CHEMBL1123561, “Aryl diazo compounds and diazonium salts as potential irreversible probes of the gamma-aminobutyric acid receptor” (J Med Chem, 1987).

Tests used:
[1] = Half-life period was determined at 20 degree Centigrade at UV lambdamax nm of 328; Unstable; type: ADME
[2] = system: GABA-A receptor; anion channel; assay: Inhibition of [3H]GABA binding to Gamma-aminobutyric acid (GABA-A) receptor of rat brain homogenates (unstable)
[3] = Half-life period was determined at 20 degree Celsius at UV lambdamax nm of 323 (23000); Stable; type: ADME
[4] = Half-life period was determined at 20 degree Celsius at UV lambdamax nm of 319 (22000); type: ADME
[5] = target: GABA-A receptor; anion channel; assay: Inhibition of [3H]GABA binding to Gamma-aminobutyric acid (GABA-A) receptor of rat brain homogenates
[6] = Half-life period was determined at 20 degree Celsius at UV lambdamax nm of 316 (22000); type: ADME
[7] = target: Gamma-aminobutyric acid receptor subunit gamma-1 (Rattus norvegicus) (UniProt P23574); assay: Inhibition of [3H]GABA binding to Gamma-aminobutyric acid (GABA-A) receptor of rat brain homogenates at 5*10e-4 M
Gamma-aminobutyric acid receptor subunit gamma-1 (Rattus norvegicus), sequence (P23574 whole entry): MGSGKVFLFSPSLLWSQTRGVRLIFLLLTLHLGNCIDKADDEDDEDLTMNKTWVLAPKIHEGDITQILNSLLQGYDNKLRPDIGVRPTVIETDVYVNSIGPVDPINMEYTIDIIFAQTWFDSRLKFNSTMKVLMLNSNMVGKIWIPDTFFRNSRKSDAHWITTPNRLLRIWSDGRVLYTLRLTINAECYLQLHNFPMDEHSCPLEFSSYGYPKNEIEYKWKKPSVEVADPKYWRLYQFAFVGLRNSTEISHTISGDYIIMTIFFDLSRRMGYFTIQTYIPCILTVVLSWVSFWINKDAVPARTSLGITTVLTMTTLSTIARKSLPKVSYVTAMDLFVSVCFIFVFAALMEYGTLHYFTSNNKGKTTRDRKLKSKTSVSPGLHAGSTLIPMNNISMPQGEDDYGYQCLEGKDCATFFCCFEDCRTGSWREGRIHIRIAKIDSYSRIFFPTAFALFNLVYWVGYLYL

[8] = target: T1, GABA-A receptor; anion channel (Rattus norvegicus) (UniProt O09028+P15431+P18506+P18508+P19969+P20236+P23574+P23576+P28471+P28473+P30191+P62813+P63079+P63138+Q91ZM7+Q9ES14); assay: Inhibition of [3H]GABA binding to Gamma-aminobutyric acid (GABA-A) receptor isolated from rat brain homogenates at 5*10e-4 M
[9] = Half-life period was determined at 20 degree Celsius at UV lambdamax nm of 258 (8500); type: ADME
[10] = Half-life period was determined at 20 degree Celsius at UV lambdamax nm of 258 (9800); Stable; type: ADME
[11] = Half-life period was determined at 20 degree Celsius at UV lambdamax nm of 328 (12000); type: ADME
[12] = Half-life period was determined at 20 degree Celsius at UV lambdamax nm of 321 (6500); type: ADME
[13] = Half-life period was determined at 20 degree Centigrade at UV lambdamax nm of 328 (9000); type: ADME
[14] = Half-life period was determined at 20 degree Celsius at UV lambdamax nm of 268 (16000); type: ADME
[15] = Half-life period was determined at 20 degree Celsius at UV lambdamax nm of 266 (16000); Stable; type: ADME
[16] = Half-life period was determined at 20 degree Celsius at UV lambdamax nm of 345 (23000); Stable; type: ADME
[17] = Half-life period was determined at 20 degree Celsius at UV lambdamax nm of 304(7800); unstable; type: ADME
[18] = target: T1, GABA-A receptor; anion channel (Rattus norvegicus); assay: Inhibition of [3H]-GABA binding to Gamma-aminobutyric acid (GABA-A) receptor of rat brain homogenates at 10e-5 M
[19] = Half-life period was determined at 20 degree Celsius at UV lambdamax nm of 313 (23000); Stable; type: ADME
[20] = Half-life period was determined at 20 degree Celsius at UV lambdamax nm of 348 (44000); Stable; type: ADME
[21] = target: Gamma-aminobutyric acid receptor subunit gamma-1 (Rattus norvegicus, UniProt P23574); assay: Inhibition of [3H]-GABA binding to Gamma-aminobutyric acid (GABA-A) receptor of rat brain homogenates (Unstable)
Gamma-aminobutyric acid receptor subunit gamma-1, sequence (P23574 whole entry): as above

[22] = Half-life period was determined at 20 degree Celsius at UV lambdamax nm of 310 (16600); type: ADME
[23] = Half-life period was determined at 20 degree Centigrade at UV lambdamax nm of 299 (8000); type: ADME
[24] = Half-life period was determined at 20 degree Centigrade at UV lambdamax nm of 313 (12000); type: ADME
[25] = Half-life period was determined at 20 degree Celsius at UV lambdamax nm of 257 (14000), 350 (7900)stable; type: ADME
[26] = Half-life period was determined at 20 degree Celsius at UV lambdamax nm of 256 (16000), 349 (9000); type: ADME
[27] = Half-life period was determined at 20 degree Celsius at UV lambdamax nm of 255 (14000), 339 (7500); type: ADME
[28] = Half-life period was determined at 20 degree Celsius at UV lambdamax nm of 254 (15000), 341 (7800); type: ADME
[29] = Half-life period was determined at 20 degree Celsius at UV lambdamax nm of 346 (44000); Stable; type: ADME
[30] = Half-life period was determined at 20 degree Celsius at UV lambdamax nm of 306 (24000); Stable; type: ADME
[31] = Half-life period was determined at 20 degree Centigrade at UV lambdamax nm of 306 (24000); type: ADME
[32] = Half-life period was determined at 20 degree Celsius at UV lambdamax nm of 314 (24000); stable; type: ADME
[33] = Half-life period was determined at 20 degree Celsius at UV lambdamax nm of 313 (22000); type: ADME
[34] = Half-life period was determined at 20 degree Celsius at UV lambdamax nm of 390 (5900); Stable; type: ADME
[35] = Half-life period was determined at 20 degree Celsius at UV lambdamax nm of 260 (9600), 350 (5000); Stable; type: ADME

In the case of `N#[N+]c1ncc(CC(=O)[O-])s1`, the T1/2 [1] is reported as “Unstable” and the IC50 [2] is reported as “Unstable”.

In the case of `N#[N+]c1nc(CC(=O)[O-])c[nH]1`, the T1/2 [3] is reported as “Stable”, the half-life [4] is reported as 11 h and the IC50 [5] is reported as 70 µM. The half-life [6] was 60 h.

In the case of `Nc1ncc(CC(=O)O)s1`, the inhibition [7] is reported as < 50%.

In the case of `N#[N+]c1cccc(C(=O)[O-])c1`, the inhibition [8] is reported as 30%, the half-life [9] is reported as 1.33 h and the T1/2 [10] is reported as “Stable”.

`Nc1ncc[nH]1` showed an inhibition [8] of 0%.

In the case of `N#[N+]c1nc(CC(=O)[O-])cs1`, the half-life [11] is reported as 48 h, the half-life [12] is reported as 43 h and the half-life [13] is reported as 0.417 h. For the same compound, the IC50 [2] was “Unstable”.

With `N#[N+]c1ccc(S(=O)(=O)[O-])cc1` the half-life [14] was 6 h, the inhibition [7] was < 50% and the T1/2 [15] was “Stable”.

For `N#[N+]c1cc[n+]([O-])cc1`, the T1/2 [16] was “Stable”, the T1/2 [17] was “Unstable” and the IC50 [2] was “Unstable”.

`Nc1nc(CC(=O)O)cs1` showed an inhibition [18] of 25%.

For `[N-]=[N+]=C1C=CC(=O)C=C1`, the inhibition [8] was 15%, the T1/2 [19] was “Stable” and the T1/2 [20] was “Stable”.

With `N#[N+]c1nccn1CC(=O)[O-]` the IC50 [21] was “Unstable”, the half-life [22] was 12 h and the half-life [23] was 3 h. For the same compound, the half-life [24] was 0.367 h.

Work on `Nc1nc(CC(=O)O)c[nH]1` yielded an inhibition [18] of 30%.

In the case of `Nc1nc(CC(N)C(=O)O)c[nH]1` (stereo not given), the inhibition [8] is reported as < 50%.

In the case of `N#[N+]c1ccc2cccc(S(=O)(=O)[O-])c2c1`, the T1/2 [25] is reported as “Stable”, the IC50 [5] is reported as < 10 µM and the half-life [26] is reported as 0.75 h.

Compound `N#[N+]c1cccc(S(=O)(=O)[O-])c1` has an IC50 [5] of 5 µM.

`N#[N+]c1cccc2cccc(S(=O)(=O)[O-])c12` gave an IC50 [5] of 10 µM, a half-life [27] of 16 h and a half-life [28] of 22 h.

With `[N-]=[N+]=C1C=CC(=O)C(S(=O)(=O)O)=C1` the inhibition [8] was 15%, the T1/2 [29] was “Stable” and the T1/2 [30] was “Stable”.

For `Nc1nccn1CC(=O)O`, the inhibition [8] was 20%.

For `NCc1ccc[n+]([O-])c1`, the inhibition [8] was 20%.

For `N#[N+]C1N=CC[N-]1` (stereo not given), the half-life [31] was 48 h, the T1/2 [32] was “Stable” and the IC50 [5] was 500 µM. The half-life [33] was 8 h.

In the case of `[N-]=[N+]=C1C=C(S(=O)(=O)O)C=CC1=O`, the inhibition [8] is reported as 15%, the T1/2 [34] is reported as “Stable” and the T1/2 [35] is reported as “Stable”.
